Test results as given in publication PMC8830247 (Journal of medicinal chemistry, 2019).
One block for each molecule: values may come before it.

Tests used:
[1] = Pharmacokinetics in rats after oral administration, plasma and brain; details: PO 10 mg/kg
D3R = details: cited from earlier work
5-HT1A receptor = target: T1, 5-HT1A receptor (Homo sapiens, UniProt P08908); assay: 5-HT1A [35S]GTPγS binding functional assay
T1 sequence (P08908 1-422): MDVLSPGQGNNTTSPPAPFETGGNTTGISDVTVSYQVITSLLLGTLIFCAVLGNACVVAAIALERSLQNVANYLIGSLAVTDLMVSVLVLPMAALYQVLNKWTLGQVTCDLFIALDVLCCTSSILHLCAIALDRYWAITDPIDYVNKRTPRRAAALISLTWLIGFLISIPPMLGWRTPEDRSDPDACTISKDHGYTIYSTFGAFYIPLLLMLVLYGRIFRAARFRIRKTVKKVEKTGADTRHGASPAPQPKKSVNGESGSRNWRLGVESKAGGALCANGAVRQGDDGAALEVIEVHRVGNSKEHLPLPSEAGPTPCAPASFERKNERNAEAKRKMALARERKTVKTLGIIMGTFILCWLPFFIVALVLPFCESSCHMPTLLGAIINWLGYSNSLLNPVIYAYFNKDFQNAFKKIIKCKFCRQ

dogs = details: cited from earlier work
rats = details: pretreatment, rats chronically treated with oxycodone; cited from earlier work
[2] = hot plate assay; cited from earlier work
[3] = system: oxycodone self-administration; details: cited from earlier work
[4] = rats, PO 10 mg/kg; adapted from previously reported data; cited from earlier work
Human Dopamine D3R = Human Dopamine D3R (Homo sapiens, UniProt P35462); assay: Stimulation or inhibition of quinpirole-stimulated mitogenesis in CHO cells; format: cell-based; details: mitogenesis assay
Sequence of Human Dopamine D3R (P35462 whole entry): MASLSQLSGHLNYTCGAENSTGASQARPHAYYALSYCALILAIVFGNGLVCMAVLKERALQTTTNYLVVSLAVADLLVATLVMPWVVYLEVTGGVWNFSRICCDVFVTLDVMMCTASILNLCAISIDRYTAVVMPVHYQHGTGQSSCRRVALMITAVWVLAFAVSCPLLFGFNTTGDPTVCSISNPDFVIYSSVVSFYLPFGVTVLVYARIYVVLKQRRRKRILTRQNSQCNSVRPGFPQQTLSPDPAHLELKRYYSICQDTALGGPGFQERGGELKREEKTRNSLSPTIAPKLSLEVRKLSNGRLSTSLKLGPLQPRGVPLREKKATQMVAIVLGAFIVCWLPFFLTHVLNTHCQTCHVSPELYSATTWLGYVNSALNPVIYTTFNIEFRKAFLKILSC

brain Cmax [1]: 3666.7 ± 312.7 pmol/g
Structure (SMILES): CCc1cccc(N2CCN(C[C@@H](O)CCNC(=O)c3cc4ccccc4[nH]3)CC2)c1Cl [(S)-5, (S)-N-(4-(4-(2-Chloro-3-ethylphenyl)piperazin-1-yl)-3-hydroxybutyl)-1H-indole-2-carboxamide]

Structure (SMILES): CCc1cccc(N2CCN(CC(O)CCNC(=O)c3cc4ccccc4[nH]3)CC2)c1Cl (centres unmarked) [compound 5]
D3R functional efficacy (in words) (D3R): relatively low efficacy partial agonist

5-HT1A functional efficacy (in words) (5-HT1A receptor): low potency partial agonist
Structure (SMILES): CCc1cccc(N2CCN(CC(F)CCNC(=O)c3cc4ccccc4o3)CC2)c1Cl (centres unmarked) [10b, N-(4-(4-(2-Chloro-3-ethylphenyl)piperazin-1-yl)-3-fluorobutyl)benzofuran-2-carboxamide]

Structure (SMILES): O=C(NCC[C@H](O)CN1CCN(c2cccc(Cl)c2Cl)CC1)c1cc2ccccc2[nH]1 [(S)-2]
D3R functional efficacy (in words) (D3R): weak partial agonist

Structure (SMILES): Cc1ncoc1-c1nnc(SCCCN2C[C@@H]3C[C@]3(c3ccc(C(F)(F)F)cc3F)C2)n1C [compound 1]
blood pressure effect when coadministered with cocaine (dogs): produced hypertension

Structure (SMILES): CCc1cc(Cl)c(OC)c(N2CCN(CC(O)CCNC(=O)c3cc4ccccc4[nH]3)CC2)c1 (centres unmarked) [compound 4]
naloxone-precipitated conditioned place aversion (rats): dose-dependently reduced | effect on antinociceptive actions of oxycodone [2]: no effect | acquisition and maintenance of oxycodone self-administration [3]: dose-dependently inhibited | oxycodone extinction response and reinstatement of oxycodone-seeking [3]: inhibited oxycodone extinction response and reinstatement of oxycodone-seeking behaviors | break-point for oxycodone self-administration ([3]; progressive-ratio schedule of reinforcement): lowering the break-point

Structure (SMILES): CCc1cccc(N2CCN(C[C@H](O)CCNC(=O)c3cc4ccccc4[nH]3)CC2)c1Cl [(R)-5, (R)-N-(4-(4-(2-Chloro-3-ethylphenyl)piperazin-1-yl)-3-hydroxybutyl)-1H-indole-2-carboxamide]
plasma exposure (AUC0-t) [4]: 1.985 ± 0.2786 µM·h

D3R functional efficacy (in words) (Human Dopamine D3R): D3R antagonists
Structure (SMILES): CCc1cc(Cl)c(OC)c(N2CCN(C[C@@H](O)CCNC(=O)c3cc4ccccc4[nH]3)CC2)c1 [(S)-4, (S)-N-(4-(4-(3-Chloro-5-ethyl-2-methoxyphenyl)piperazin-1-yl)3-hydroxybutyl)-1H-indole-2-carboxamide]

Structure (SMILES): O=C(NCC[C@@H](O)CN1CCN(c2cccc(Cl)c2Cl)CC1)c1cc2ccccc2[nH]1 [(R)-2]
D3R functional efficacy (in words) (D3R): antagonist

D3R functional efficacy (in words) (Human Dopamine D3R): D3R antagonists
Structure (SMILES): CCc1cc(Cl)c(OC)c(N2CCN(C[C@H](O)CCNC(=O)c3cc4ccccc4[nH]3)CC2)c1 [(R)-4, (R)-N-(4-(4-(3-Chloro-5-ethyl-2-methoxyphenyl)piperazin-1-yl)3-hydroxybutyl)-1H-indole-2-carboxamide]
